Experimental data taken from US20080045467A1, “Composition Containing Ginsenoside F1 Or Compound K For Skin External Application” (Amorepacific Corporation, priority 2004, published 2008).

Columns and labels:
[1] = tested on: Type VII collagen; experiment: Biosynthesis of Type VII collagen in human fibroblast (Dot Blot); assay type: cell-based; details: 24 hours, control group = 100
Experimental: Human fibroblast was cultured with a concentration of 10^4 cells/well in 24-well plate mediums, and each medium was exchanged with a new one containing the compound separated in Example 1 or 2 at the densities of 0.1 ppm, 1 ppm or 10 ppm. After 24 hours of cultivation, the supernatants were harvested and the amount of Type VII collagen was quantified using Dot Blot method.

[2] = tested on: laminin 10/11; experiment: Biosynthesis of laminin 10/11 in human keratinocyte (Dot Blot); assay type: cell-based; details: 24 hours, control group = 100
Experimental: (§1) Human keratinocyte was cultured with a concentration of 5×10^4 cells/well in 24-well plate mediums, and each medium was exchanged with a new one containing the compound separated in either Example 1 or 2 at the densities of 0.1 ppm, 1 ppm or 10 ppm. After 24 hours of cultivation, the supernatants were harvested and the amount of laminin 10/11 was quantified using Dot Blot method.

[3] = tested on: MMP-9; experiment: Inhibition of biosynthesis of MMP-9 in UVB-irradiated human keratinocyte (gelatin zymography); assay type: cell-based; details: 30 mJ/cm^2 UVB, 2 days, amount relative to control group = 100
Experimental: (§2) Human keratinocyte was cultured with a concentration of 10^4 cells/well in 24-well plate mediums, and 24 hours later they were irradiated with 30 mJ/cm^2 of UVB. Each medium was then exchanged with a new one containing the compound separated in either Example 1 or 2 at the densities of 0.1 ppm, 1 ppm or 10 ppm, respectively. After 2 days of cultivation, the supernatants were obtained and gelatin zymography was performed on the obtained supernatant to form MMP-2 and MMP-9. The amount of MMP-2 and MMP-9 thus formed was determined by densitometer for each medium, and was compared with the amount of MMP-2 and MMP-9 in the control group, which was set as 100 (The mediums not containing the compounds in Examples 1 and 2 were cultured as a control group).

[4] = tested on: Type IV collagen; experiment: Biosynthesis of Type IV collagen in human keratinocyte (Dot Blot); assay type: cell-based; details: 24 hours, control = 100
Experimental: as §1, with “example” for “Example”, “Type IV collagen” for “laminin 10/11”

[5] = tested on: MMP-2; experiment: Inhibition of biosynthesis of MMP-2 in UVB-irradiated human keratinocyte (gelatin zymography); assay type: cell-based; details: 30 mJ/cm^2 UVB, 2 days, amount relative to control group = 100
Experimental: as §2

[6] = tested on: epidermal-dermal junction; experiment: Change in epidermal-dermal junction of UV-irradiated nude mouse (electron microscope); assay type: in vivo; details: applied while irradiating with UV light, compared to comparative formulation 1
Experimental: In order to verify the change to the epidermal-dermal junction irradiated with UV light by the composition of the present invention, external applications with the formulation of nutrition cream were prepared according to the ratios in Table 5.
Each of the formulations 1˜3 and the comparative formulation 1 were applied to the back of each nude mouse 5 times in a week for 2 weeks, and for 12 weeks thereafter each of the formulations 1˜3 and the comparative formulation 1 were applied 5 times per week while irradiating UV light 3 times. After biopsy, the change of the epidermal-dermal junction was determined by electron microscope.

Structure (SMILES)	Biosynthesis of Type VII collagen (%) ([1]; 0.1 ppm)	Biosynthesis of Type VII collagen (%) ([1]; 1 ppm)	Biosynthesis of Type VII collagen (%) ([1]; 10 ppm)	Biosynthesis of laminin 10/11 (%) ([2]; 0.1 ppm)	Biosynthesis of laminin 10/11 (%) ([2]; 1 ppm)	Biosynthesis of laminin 10/11 (%) ([2]; 10 ppm)	MMP-9 (%) ([3]; 0.1 ppm)	MMP-9 (%) ([3]; 1 ppm)	MMP-9 (%) ([3]; 10 ppm)	Biosynthesis of Type IV collagen (%) ([4]; 0.1 ppm)	Biosynthesis of Type IV collagen (%) ([4]; 1 ppm)	Biosynthesis of Type IV collagen (%) ([4]; 10 ppm)	MMP-2 (%) ([5]; 0.1 ppm)	MMP-2 (%) ([5]; 1 ppm)	MMP-2 (%) ([5]; 10 ppm)	change, separation or multiplexing of the epidermal-dermal junction [6]
CC(C)=CCC[C@](C)(O[C@@H]1O[C@H](CO)[C@@H](O)[C@H](O)[C@H]1O)[C@H]1CC[C@]2(C)[C@@H]1[C@H](O)C[C@@H]1[C@@]3(C)CC[C@H](O)C(C)(C)[C@@H]3[C@@H](O)C[C@]12C [Example 1, 20-O-β-D-glucopyranosyl-20(S)-protopanaxatriol]	118%	132%	141%	112%	125%	134%	85%	69%	55%	116%	129%	134%	82%	67%	51%	little change, separation or multiplexing
CC(C)=CCC[C@](C)(O[C@@H]1O[C@H](CO)[C@@H](O)[C@H](O)[C@H]1O)[C@H]1CC[C@]2(C)[C@@H]1[C@H](O)C[C@@H]1[C@@]3(C)CC[C@H](O)C(C)(C)[C@@H]3CC[C@]12C [Example 2, 20-O-β-D-glucopyranosyl-20(S)-protopanaxadiol]	120%	135%	146%	115%	125%	137%	78%	62%	49%	119%	128%	139%	79%	61%	48%	little change, separation or multiplexing
